Here are results for 34 compounds from patent publication US7595401B2, “Therapeutic compounds and their use in cancer” (Myriad Pharmaceuticals, Inc., priority 2006, dated 2009).

Each structure is given as a SMILES string.

One test relates to purified human Hsp90. Kind of test: Binding Assay: fluorescence polarization with BODIPY-labeled geldanamycin. The conditions noted are these: 5 μM compound, BODIPY-GM 10 nM, Hsp90 30 nM. The procedure, abridged:
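Compounds in 2% DMSO final compete with 10 nM BODIPY-GM for 30 nM purified human Hsp90, incubated overnight at room temperature in pH 7.3 HEPES buffer containing Na2MoO4 and DTT. Polarization (mP, ex/em 485/530) normalized to DMSO gives percent inhibition; autofluorescence-confounded data excluded.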
As for `COc1ccc(OC)c(Sc2nc3c(N)ncn(CCC4CCN(C(=O)OC(C)(C)C)CC4)c-3n2)c1` [Example 343, tert-Butyl 4-(2-{6-amino-8-[(2,5-dimethoxyphenyl)thio]-3H-purin-3-yl}ethyl)piperidine-1-carboxylate], the “% Inhibition at 5 μM Compound Concentration” value (“% Inhibition” for short) was 0%.

Turning to `CC(C)(C)OC(=O)N1CCC(CCn2cnc(N)c3nc(Sc4cc5c(cc4Br)OCO5)nc2-3)CC1` [Example 344, tert-Butyl 4-(2-{6-amino-8-[(6-bromo-1,3-benzodioxol-5-yl)thio]-3H-purin-3-yl}ethyl)piperidine-1-carboxylate], the “% Inhibition” value was 22%.

`CC(C)(C)OC(=O)N1CCCC(CCn2cnc(N)c3nc(Sc4cc5c(cc4Br)OCO5)nc2-3)C1` (stereo not shown) [Example 345, tert-Butyl 3-(2-{6-amino-8-[(6-bromo-1,3-benzodioxol-5-yl)thio]-3H-purin-3-yl}ethyl)piperidine-1-carboxylate]: the “% Inhibition” value came to 3%.

Consider `COc1ccc(OC)c(Sc2nc3c(N)ncn(CCC4CCOCC4)c-3n2)c1` [Example 349, 8-[(2,5-Dimethoxyphenyl)thio]-3-[2-(tetrahydro-2H-pyran-4-yl)ethyl]-3H-purin-6-amine], for which the “% Inhibition” value is 12%.

Take `Nc1ncn(CCC2CCOCC2)c2nc(Sc3cc4c(cc3Br)OCO4)nc1-2` [Example 350, 8-[(6-Bromo-1,3-benzodioxol-5-yl)thio]-3-[2-(tetrahydro-2H-pyran-4-yl)ethyl]-3H-purin-6-amine]: the “% Inhibition” value amounted to 25%.

Consider `CC1(C)CC(CCn2cnc(N)c3nc(Sc4cc5c(cc4Br)OCO5)nc2-3)CC(C)(C)N1` [Example 351, 8-[(6-Bromo-1,3-benzodioxol-5-yl)thio]-3-[2-(2,2,6,6-tetramethylpiperidin-4-yl)ethyl]-3H-purin-6-amine], for which the “% Inhibition” value is given as 8%.

For the compound `CN1CCCC1CCn1cnc(N)c2nc(Sc3cc4c(cc3Br)OCO4)nc1-2` (stereo not shown) [Example 352, 8-[(6-Bromo-1,3-benzodioxol-5-yl)thio]-3-[2-(1-methylpyrrolidin-2-yl)ethyl]-3H-purin-6-amine], the “% Inhibition” value came out at 35%.

For `Nc1ncn(CCC23CC4CC(CC(C4)C2)C3)c2nc(Sc3cc4c(cc3Br)OCO4)nc1-2` [Example 357, 3-[2-(1-Adamantyl)ethyl]-8-[(6-bromo-1,3-benzodioxol-5-yl)thio]-3H-purin-6-amine], the “% Inhibition” value is 0%.

Take `COc1ccc(OC)c(Sc2nc3c(N)ncn(CCC4CCN(C=O)CC4)c-3n2)c1` [Example 359, 4-(2-{6-Amino-8-[(2,5-dimethoxyphenyl)thio]-3H-purin-3-yl}ethyl)piperidine-1-carbaldehyde]: the “% Inhibition” value came to 3%.

`COc1ccc(OC)c(Sc2nc3c(N)ncn(CCC4CC(C)(C)NC(C)(C)C4)c-3n2)c1` [Example 360, 8-[(2,5-Dimethoxyphenyl)thio]-3-[2-(2,2,6,6-tetramethylpiperidin-4-yl)ethyl]-3H-purin-6-amine]: the “% Inhibition” value amounted to 5%.

As to `CC(=O)N1CCC(CCn2cnc(N)c3nc(Sc4cc5c(cc4Br)OCO5)nc2-3)CC1` [Example 365, 3-[2-(1-Acetylpiperidin-4-yl)ethyl]-8-[(6-bromo-1,3-benzodioxol-5-yl)thio]-3H-purin-6-amine], the “% Inhibition” value was determined as 31%.

For the compound `CS(=O)(=O)N1CCC(CCn2cnc(N)c3nc(Sc4cc5c(cc4Br)OCO5)nc2-3)CC1` [Example 366, 8-[(6-Bromo-1,3-benzodioxol-5-yl)thio]-3-{2-[1-(methylsulfonyl)piperidin-4-yl]ethyl}-3H-purin-6-amine], the “% Inhibition” value was 20%.

`CS(=O)(=O)N1CCCCC1CCn1cnc(N)c2nc(Sc3cc4c(cc3Br)OCO4)nc1-2` (stereo not shown) [Example 373, 8-[(6-Bromo-1,3-benzodioxol-5-yl)thio]-3-{2-[1-(methylsulfonyl)piperidin-2-yl]ethyl}-3H-purin-6-amine]: the “% Inhibition” value stood at 15%.

`Nc1ncn(CCn2ccnc2)c2nc(Sc3cc4c(cc3Br)OCO4)nc1-2` [Example 380, 8-[(6-Bromo-1,3-benzodioxol-5-yl)thio]-3-[2-(1H-imidazol-1-yl)ethyl]-3H-purin-6-amine]: the “% Inhibition” value came to 4%.

Staying with this test, now noted: BODIPY-GM 10 nM, Hsp90 30 nM.
The compound `CC(C)(C)OC(=O)N1CCCC(CCn2c(Sc3cc4c(cc3Br)OCO4)nc3c(N)ncnc32)C1` (stereo not shown) [Example 346, tert-Butyl 3-(2-{6-amino-8-[(6-bromo-1,3-benzodioxol-5-yl)thio]-9H-purin-9-yl}ethyl)piperidine-1-carboxylate] came in with an IC50 of 325 nM. This lies in the sub-micromolar range.

The compound `COc1ccc(OC)c(Sc2nc3c(N)ncnc3n2CCC2CCCN(C(=O)OC(C)(C)C)C2)c1` (stereo not shown) [Example 347, tert-Butyl 3-(2-{6-amino-8-[(2,5-dimethoxyphenyl)thio]-9H-purin-9-yl}ethyl)piperidine-1-carboxylate] registered an IC50 of 2500 nM.

The compound `COc1ccc(OC)c(Sc2nc3c(N)ncnc3n2CCC2CCOCC2)c1` [Example 348, 8-[(2,5-Dimethoxyphenyl)thio]-9-[2-(tetrahydro-2H-pyran-4-yl)ethyl]-9H-purin-6-amine] yielded an IC50 of 800 nM.

Consider `Nc1ncnc2c1nc(Sc1cc3c(cc1Br)OCO3)n2CCC1CCOCC1` [Example 353, 8-[(6-Bromo-1,3-benzodioxol-5-yl)thio]-9-[2-(tetrahydro-2H-pyran-4-yl)ethyl]-9H-purin-6-amine], for which the IC50 is 57 nM.

As for `CC1(C)CC(CCn2c(Sc3cc4c(cc3Br)OCO4)nc3c(N)ncnc32)CC(C)(C)N1` [Example 354, 8-[(6-Bromo-1,3-benzodioxol-5-yl)thio]-9-[2-(2,2,6,6-tetramethylpiperidin-4-yl)ethyl]-9H-purin-6-amine], the IC50 was determined as 250 nM.

For `CN1CCCC1CCn1c(Sc2cc3c(cc2Br)OCO3)nc2c(N)ncnc21` (stereo not shown) [Example 355, 8-[(6-Bromo-1,3-benzodioxol-5-yl)thio]-9-[2-(1-methylpyrrolidin-2-yl)ethyl]-9H-purin-6-amine], the IC50 is over 25000 nM.

For `Nc1ncnc2c1nc(Sc1cc3c(cc1Br)OCO3)n2CCC12CC3CC(CC(C3)C1)C2` [Example 356, 9-[2-(1-Adamantyl)ethyl]-8-[(6-bromo-1,3-benzodioxol-5-yl)thio]-9H-purin-6-amine], the IC50 was over 25000 nM.

The compound `COc1ccc(OC)c(Sc2nc3c(N)ncnc3n2CCC2CCN(C=O)CC2)c1` [Example 358, 4-(2-{6-Amino-8-[(2,5-dimethoxyphenyl)thio]-9H-purin-9-yl}ethyl)piperidine-1-carbaldehyde] showed an IC50 of 450 nM.

Compound `COc1ccc(OC)c(Sc2nc3c(N)ncnc3n2CCC2CC(C)(C)NC(C)(C)C2)c1` [Example 361, 8-[(2,5-Dimethoxyphenyl)thio]-9-[2-(2,2,6,6-tetramethylpiperidin-4-yl)ethyl]-9H-purin-6-amine] showed an IC50 of 2900 nM.

`CCOc1ccc(OCC)c(Sc2nc3c(N)ncnc3n2CCC2CCN(C(=O)OC(C)(C)C)CC2)c1` [Example 362, tert-Butyl 4-(2-{6-amino-8-[(2,5-diethoxyphenyl)thio]-9H-purin-9-yl}ethyl)piperidine-1-carboxylate] displayed an IC50 of over 25000 nM.

Consider `Nc1ncnc2c1nc(Sc1cc3c(cc1Br)OCO3)n2CCC1CCN(C=O)CC1` [Example 363, 4-(2-{6-Amino-8-[(6-bromo-1,3-benzodioxol-5-yl)thio]-9H-purin-9-yl}ethyl)piperidine-1-carbaldehyde], for which the IC50 stood at 300 nM.

For the compound `CC(=O)N1CCC(CCn2c(Sc3cc4c(cc3Br)OCO4)nc3c(N)ncnc32)CC1` [Example 364, 9-[2-(1-Acetylpiperidin-4-yl)ethyl]-8-[(6-bromo-1,3-benzodioxol-5-yl)thio]-9H-purin-6-amine], the IC50 was 102 nM.

On to `CC(C)(C)OC(=O)N1CCOC(CCn2c(Sc3cc4c(cc3Br)OCO4)nc3c(N)ncnc32)C1` (stereo not shown) [Example 367, tert-Butyl 2-(2-{6-amino-8-[(6-bromo-1,3-benzodioxol-5-yl)thio]-9H-purin-9-yl}ethyl)morpholine-4-carboxylate], for which the IC50 is over 25000 nM.

Regarding `CS(=O)(=O)N1CCCC(CCn2c(Sc3cc4c(cc3Br)OCO4)nc3c(N)ncnc32)C1` (stereo not shown) [Example 369, 8-[(6-Bromo-1,3-benzodioxol-5-yl)thio]-9-{2-[1-(methylsulfonyl)piperidin-3-yl]ethyl}-9H-purin-6-amine], the IC50 was found to be 35 nM.

In turn, `CS(=O)(=O)N1CCCC(CCn2cnc(N)c3nc(Sc4cc5c(cc4Br)OCO5)nc2-3)C1` (stereo not shown) [Example 370, 8-[(6-Bromo-1,3-benzodioxol-5-yl)thio]-3-{2-[1-(methylsulfonyl)piperidin-3-yl]ethyl}-3H-purin-6-amine] came in with an IC50 of 600 nM.

The compound `COc1ccc(OC)c(Sc2nc3c(N)ncnc3n2CCC2CCCCN2S(C)(=O)=O)c1` (stereo not shown) [Example 371, 8-[(2,5-Dimethoxyphenyl)thio]-9-{2-[1-(methylsulfonyl)piperidin-2-yl]ethyl}-9H-purin-6-amine] had an IC50 of 700 nM.

`CS(=O)(=O)N1CCCCC1CCn1c(Sc2cc3c(cc2Br)OCO3)nc2c(N)ncnc21` (stereo not shown) [Example 372, 8-[(6-Bromo-1,3-benzodioxol-5-yl)thio]-9-{2-[1-(methylsulfonyl)piperidin-2-yl]ethyl}-9H-purin-6-amine] yielded an IC50 of 100 nM.

Compound `CS(=O)(=O)N1CCC(CCn2c(Sc3cc4c(cc3Br)OCO4)nc3c(N)ncnc32)CC1` [Example 378, 8-[(6-Bromo-1,3-benzodioxol-5-yl)thio]-9-{2-[1-(methylsulfonyl)piperidin-4-yl]ethyl}-9H-purin-6-amine] registered an IC50 of 240 nM. Against the preceding compound, the IC50 is about 2.4-fold higher.

In the case of `Nc1ncnc2c1nc(Sc1cc3c(cc1Br)OCO3)n2CCn1ccnc1` [Example 381, 8-[(6-Bromo-1,3-benzodioxol-5-yl)thio]-9-[2-(1H-imidazol-1-yl)ethyl]-9H-purin-6-amine], the IC50 came to 390 nM.

For `CC(=O)N1CCN(CCn2c(Sc3cc4c(cc3Br)OCO4)nc3c(N)ncnc32)CC1` [Example 382, 9-[2-(4-Acetylpiperazin-1-yl)ethyl]-8-[(6-bromo-1,3-benzodioxol-5-yl)thio]-9H-purin-6-amine], the IC50 was 140 nM.
